Reference: patent US8183380B2, “2-aminoquinolines” (Hoffmann-La Roche Inc., priority 2008, dated 2012)

target: T1, recombinant human 5-HT5A receptor (Homo sapiens, UniProt P47898); assay: [3H]LSD radioligand binding assay; details: [3H]LSD (approximately 1 nM); membranes from transiently expressed 5-HT5A receptors in HEK-EBNA cells; Ki from IC50 by Cheng-Prussoff equation
T1 construct: expressed in transfected cells; host or cells: HEK-EBNA (Human Embryonic Kidney-EBNA) cells, transient cDNA expression; membranes
T1 sequence (P47898 whole entry): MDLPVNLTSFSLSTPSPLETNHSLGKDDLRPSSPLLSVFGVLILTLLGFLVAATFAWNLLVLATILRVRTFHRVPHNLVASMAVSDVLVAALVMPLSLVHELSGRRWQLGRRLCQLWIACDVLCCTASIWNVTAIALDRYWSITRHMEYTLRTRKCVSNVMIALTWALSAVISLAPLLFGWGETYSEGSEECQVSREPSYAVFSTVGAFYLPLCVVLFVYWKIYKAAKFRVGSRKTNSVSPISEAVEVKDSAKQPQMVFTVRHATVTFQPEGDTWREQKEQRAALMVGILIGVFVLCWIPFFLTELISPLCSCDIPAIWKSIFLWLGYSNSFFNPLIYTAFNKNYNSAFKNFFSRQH
Method: A [^3H]LSD radioligand binding assay was used to determine the affinity of the compounds for the recombinant human 5-HT5A receptor, in membranes from transiently (cDNA) expressed 5-HT5A receptors in Human Embryonic Kidney-EBNA (HEK-EBNA) cells. Assay buffer consisted of Tris (50 mM) buffer containing 1 mM EGTA, 10 mM MgCl2 (pH 7.4) and 10 μM pargyline. The binding assay was carried out in 96-well-plates in the presence of [^3H]LSD (approximately 1 nM), approximately 2 μg/well of membrane protein, and 0.5 mg of Ysi-poly-1-lysine SPA beads in a final volume of 200 μl of buffer. Non-specific binding was defined using methiothepin 2 μM. Compounds were tested at 10 concentrations. All assays were conducted in duplicate and repeated at least two times. Assay plates were incubated for 120 min at room temperature before centrifugation. Bound ligand was determined using a Packard Topcount scintillation counter. IC50 values were calculated using a non-linear curve fitting program and Ki values calculated using the Cheng-Prussoff equation.

Compound	Ki [nM]
O=C(Nc1ccc2nc(N[C@@H]3CCc4ccccc43)ccc2c1)NC1CCN(CCF)CC1 [Example 97, 1-[1-(2-Fluoro-ethyl)-piperidin-4-yl]-3-[2-((R)-indan-1-ylamino)-quinolin-6-yl]-urea]	2.9
O=C(Nc1ccc2nc(N[C@@H]3CCc4ccccc43)ccc2c1)N[C@@H]1C[C@H]2CC[C@@H](C1)N2C1CC1 [Example 99, 1-((3-exo)-8-Cyclopropyl-8-aza-bicyclo[3.2.1]oct-3-yl)-3-[2-((R)-indan-1-ylamino)-quinolin-6-yl]-urea]	3.9
CN1[C@@H]2CC[C@H]1C[C@H](NC(=O)Nc1ccc3nc(N[C@@H]4CCc5ccccc54)ccc3c1)C2 [Example 101, 1-[2-((R)-Indan-1-ylamino)-quinolin-6-yl]-3-((3-exo)-8-methyl-8-aza-bicyclo[3.2.1]oct-3-yl)-urea]	3.7
O=C(Nc1ccc2nc(N[C@@H]3CCc4ccccc43)ccc2c1)N[C@@H]1C[C@H]2CCC[C@@H](C1)N2C1CC1 [Example 110, 1-((3-exo)-9-Cyclopropyl-9-aza-bicyclo[3.3.1]non-3-yl)-3-[2-((R)-indan-1-ylamino)-quinolin-6-yl]-urea]	7.2
N#CCN1CCC(NC(=O)Nc2ccc3nc(N[C@@H]4CCc5ccccc54)ccc3c2)CC1 [Example 133, 1-(1-Cyanomethyl-piperidin-4-yl)-3-[2-((R)-indan-1-ylamino)-quinolin-6-yl]-urea]	4.2
CC(C)N1C2CCCC1CC(NC(=O)Nc1ccc3nc(NC4CCc5ccccc54)ccc3c1)C2 [Example 168, 1-[2-((R)-Indan-1-ylamino)-quinolin-6-yl]-3-((3-exo)-9-isopropyl-9-aza-bicyclo[3.3.1]non-3-yl)-urea]	7.8
CC(C)N1[C@@H]2CC[C@H]1C[C@H](NC(=O)Nc1ccc3nc(N[C@@H]4CCc5ccccc54)ccc3c1)C2 [Example 170, 1-[2-((R)-Indan-1-ylamino)-quinolin-6-yl]-3-((3-exo)-8-isopropyl-8-aza-bicyclo[3.2.1]oct-3-yl)-urea]	7.1
(2-Methoxy-ethyl)-methyl-sulfonic acid [2-((R)-indan-1-ylamino)quinolin-6-yl]-amide [Example 75]	8.3

Continued, values first:

Ki [nM]	Compound
5.7	CS(=O)(=O)CCN1CCC(NC(=O)Nc2ccc3nc(N[C@@H]4CCc5ccccc54)ccc3c2)CC1 [Example 135, 1-[2-((R)-Indan-1-ylamino)-quinolin-6-yl]-3-[1-(2-methanesulfonyl-ethyl)-piperidin-4-yl]-urea]
6.5	CN(C)C(=O)CN1CCC(NC(=O)Nc2ccc3nc(N[C@@H]4CCc5ccccc54)ccc3c2)CC1 [Example 136, 2-(4-{3-[2-((R)-Indan-1-ylamino)-quinolin-6-yl]-ureido}-piperidin-1-yl)-N,N-dimethylacetamide]
1.7	O=C(Nc1ccc2nc(N[C@@H]3CCc4ccccc43)ccc2c1)NC1CCN(CCO)CC1 [Example 137, 1-[1-(2-Hydroxy-ethyl)-piperidin-4-yl]-3-[2-((R)-indan-1-ylamino)-quinolin-6-yl]-urea]
8	CC(C)OC(=O)Nc1ccc2nc(N[C@@H]3CCc4ccccc43)ccc2c1 [Example 138, [2-((R)-Indan-1-ylamino)-quinolin-6-yl]-carbamic acid isopropyl ester]
2.1	COc1cccc2c1C(Nc1ccc3cc(NS(=O)(=O)N4C[C@@H]5C[C@H]4CO5)ccc3n1)CC2 (stereo partly drawn) [Example 148, (1S,4S)-2-Oxa-5-aza-bicyclo[2.2.1]heptane-5-sulfonic acid [2-(7-methoxy-indan-1-ylamino)-quinolin-6-yl]-amide]
14.8	NC(=S)Nc1ccc2nc(N[C@@H]3CCc4ccccc43)ccc2c1 [Example 149, [2-((R)-Indan-1-ylamino)-quinolin-6-yl]-thiourea]
33.7	CC(C)N=C(Nc1ccc2nc(N[C@@H]3CCc4ccccc43)ccc2c1)NC(C)C [Example 166, N-[2-((R)-Indan-1-ylamino)-quinolin-6-yl]-N′,N″-diisopropyl-guanidine]
6.7	CN1CCN(CC(=O)Nc2ccc3nc(N[C@@H]4CCc5ccccc54)ccc3c2)CC1 [Example 210, N-[2-((R)-Indan-1-ylamino)-quinolin-6-yl]-2-(4-methyl-piperazin-1-yl)-acetamide]
